In the supplement of paper PMC10307832 one finds relative viability data, which are given here for one cell line.

Holding throughout (assay): relative viability (nuclei count vs DMSO), 5 days (fraction); higher = more cells survive
Compound in the assay “OSI-027 + Luminespib”: COc1cccc2cc(-c3nc([C@H]4CC[C@H](C(=O)O)CC4)n4ncnc(N)c34)[nH]c12 [OSI-027] + CCNC(=O)c1noc(-c2cc(C(C)C)c(O)cc2O)c1-c1ccc(CN2CCOCC2)cc1 [Luminespib] (partner 0.01 µM)
In short, it runs like this: (§1)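 For relative viability, nuclei counts in treated wells were divided by those in vehicle wells. Lung cancer cell lines had been pin-tool dosed in 1536-well plates the day after seeding and cultured for 5 days, then fixed and stained in one step (final 0.05% Triton X-100, 1% formaldehyde, 1 ug/ml Hoechst) and imaged at 4×. Doses were one drug alone or a fixed anchor-drug dose plus five library-drug doses (not always all listed) in √10 steps, and values are duplicate-plate medians.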

Compound in the assay “Alpelisib + Trametinib”: Cc1nc(NC(=O)N2CCC[C@H]2C(N)=O)sc1-c1ccnc(C(C)(C)C(F)(F)F)c1 [Alpelisib] + CC(=O)Nc1cccc(-n2c(=O)n(C3CC3)c(=O)c3c(Nc4ccc(I)cc4F)n(C)c(=O)c(C)c32)c1 [Trametinib] (partner 0.02 µM)
In short, it runs like this:
as §1

Compound in the assay “Alpelisib + OSI-027”: Cc1nc(NC(=O)N2CCC[C@H]2C(N)=O)sc1-c1ccnc(C(C)(C)C(F)(F)F)c1 [Alpelisib] + COc1cccc2cc(-c3nc([C@H]4CC[C@H](C(=O)O)CC4)n4ncnc(N)c34)[nH]c12 [OSI-027] (partner 0.5 µM)
The procedure, abridged: as §1

Compound in the assay “Alpelisib + Pictilisib”: Cc1nc(NC(=O)N2CCC[C@H]2C(N)=O)sc1-c1ccnc(C(C)(C)C(F)(F)F)c1 [Alpelisib] + CS(=O)(=O)N1CCN(Cc2cc3nc(-c4cccc5[nH]ncc45)nc(N4CCOCC4)c3s2)CC1 [Pictilisib] (partner 1 µM)
The procedure, abridged: as §1

For the cell line UMC-11, the relative viability in the assay with OSI-027 + Luminespib (first compound 0.01 µM) came out at 1.04; with OSI-027 + Luminespib (first compound 0.03162 µM) it was 0.949; with OSI-027 + Luminespib (first compound 0.1 µM) it was 0.783; in the assay with OSI-027 + Luminespib (first compound 0.3162 µM), 0.637; with OSI-027 + Luminespib (first compound 1 µM) it was 0.551; with Alpelisib + Trametinib (first compound 0.04 µM) it was 0.696. Also, the relative viability with Alpelisib + Trametinib (first compound 0.1265 µM) was 0.628; with Alpelisib + Trametinib (first compound 0.4 µM), 0.875; with Alpelisib + Trametinib (first compound 1.265 µM) it was 0.67; with Alpelisib + Trametinib (first compound 4 µM), 0.68; with Alpelisib + OSI-027 (first compound 0.04 µM) it was 0.473; with Alpelisib + OSI-027 (first compound 0.1265 µM), 0.464. The relative viability in the assay with Alpelisib + OSI-027 (first compound 0.4 µM) was 0.502; with Alpelisib + OSI-027 (first compound 1.265 µM), 0.438; in the assay with Alpelisib + OSI-027 (first compound 4 µM), 0.462; in the assay with Alpelisib + Pictilisib (first compound 0.04 µM) it was 0.832; with Alpelisib + Pictilisib (first compound 0.1265 µM) it was 0.883; with Alpelisib + Pictilisib (first compound 0.4 µM), 0.877. The relative viability worked out at 0.922 in the assay with Alpelisib + Pictilisib (first compound 1.265 µM) and 0.772 in the assay with Alpelisib + Pictilisib (first compound 4 µM).
